Measurements from US20250257361A1, “COMPOSITIONS AND METHODS FOR TREATING LIVER DISEASES WITH SIRNAS TARGETING SMYD2” (The Board of Regents of The University of Texas System, priority 2022, published 2025).

Experiments:
human SMYD2 = experiment: SMYD2 luciferase reporter assay (dual Renilla/Firefly) for siRNA knockdown in Cos7 cells; type: cell-based; settings: psiCheck2 human Smyd2 luciferase reporter and siRNA co-transfected, 24 h, triplicates (Table 2; text says 48 hours)
WD NASH model = test system: WD NASH model
Description: FIG. 6A. Experimental design for pre-clinical testing of AZ505 in the WD NASH model. WD was given at 8 weeks of age for a total of 2 months. AZ505 treatment started one day after WD was initiated. Vehicle (2.5% DMSO in saline) or AZ505 (10 mg/kg in saline containing 2.5% DMSO) was given to mice intraperitoneally 3 times per week. FIG. 6B. Body weight of vehicle or AZ505 treated mice before and after 2 months of WD (n=15 and 14 mice). FIGS. 6C-6D. Liver weight and liver/body weight ratios of vehicle or AZ505 treated mice after 2 months of WD (n=15 and 14). FIG. 6E. Representative liver pictures and H&E staining of liver sections for vehicle or AZ505 treated mice after 2 months of WD. FIGS. 6F-6G. Liver function analysis using plasma ALT and AST (n=15 and 14). FIGS. 6H-6I. Liver triglyceride and cholesterol analysis (n=15 and 14). FIGS. 6J-6K. Plasma triglyceride and cholesterol analysis (n=15 and 14).
In order to determine if chemical SMYD2 inhibition could serve as orthogonal validation of the genetic findings, and to investigate the therapeutic potential of SMYD2 blockade in fatty liver disease, AZ505 was used. […] WD was fed to WT mice at 8 weeks of age, followed by treatment with vehicle control or AZ505 with a dose of 10 mg/kg (intraperitoneal injection) three times per week (FIG. 6A).
All mice were handled in accordance with the guidelines of the Institutional Animal Care and Use Committee at UT Southwestern. All experiments were done in an age and sex controlled fashion unless otherwise noted. C57BL/6 strain background mice were used for all the experiments. LSL-tdTomato (strain #007914) and Rosa-rtTA; TetO-Cas9 mice (#029415) were obtained from The Jackson Laboratory. Mice homozygous for both Rosa-rtTA and TetO-Cas9 were used to ensure a high Cas9 expression level in the liver. Western Diet (WD) used for NASH modeling is described in (Tsuchida et al., 2018). It is composed of high fat solid food (ENVIGO #TD.120528) and high sugar water containing 23.1 g/L d-fructose (Sigma-Aldrich #F0127) and 18.9 g/L d-glucose (Sigma-Aldrich #G8270).
Liver pieces were fixed in buffered formalin (Fisherbrand #245-685) for 24 h with gentle shaking at 4° C. and then transferred to 70% EtOH for another 24 h with shaking at 4° C. Paraffin embedding, liver sectioning (4 μm thickness), and H&E staining were performed at the UT Southwestern Tissue Management Shared Resource Core. For IHC staining, the following primary antibodies were used: Pten (CST #9559, IHC 1:200); Ki67 (Abcam #AB15580, IHC 1:200). IHC). IHC was performed as previously described (Zhu et al., 2010). TUNEL staining was performed on paraffin embedded liver sections using In Situ Cell Death Detection Kit, Fluorescein (Roche #C755B40) according to the manufacturer's protocol. QuPath software (https://qupath.github.io/) was used to quantify Ki67 and TUNEL staining.
The supernatant after centrifugation (plasma) was analyzed for AST, ALT, cholesterol, and triglyceride using VITROS MicroSlide Technology at the UT Southwestern Metabolic Phenotyping Core. 100-150 mg of liver per sample was weighted and used for lipid extraction and quantification at the UT Southwestern Metabolic Phenotyping Core.

SMYD2 = SMYD2 (Homo sapiens, UniProt Q9NRG4); settings: cited from earlier work
[1] = AZ505 10 mg/kg i.p. 3 times per week vs. vehicle, 2 months WD

SMYD2, sequence (Q9NRG4 whole entry, species assumed): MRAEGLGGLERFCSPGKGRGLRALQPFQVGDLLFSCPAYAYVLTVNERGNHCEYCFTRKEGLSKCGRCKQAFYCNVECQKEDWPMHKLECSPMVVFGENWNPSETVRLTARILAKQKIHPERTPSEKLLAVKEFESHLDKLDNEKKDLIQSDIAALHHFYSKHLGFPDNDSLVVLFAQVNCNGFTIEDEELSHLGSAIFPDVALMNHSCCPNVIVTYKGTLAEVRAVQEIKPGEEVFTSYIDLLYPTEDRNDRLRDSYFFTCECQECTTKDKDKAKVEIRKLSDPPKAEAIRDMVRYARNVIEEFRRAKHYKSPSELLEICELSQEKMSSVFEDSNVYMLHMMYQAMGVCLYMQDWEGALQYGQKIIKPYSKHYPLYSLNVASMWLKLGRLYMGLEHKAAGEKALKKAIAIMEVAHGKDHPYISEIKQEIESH

## SMYD2 750-772: siRNA to human SMYD2; sense GAAAUGACCGGUUAAGAGAUU (SEQ 78), antisense UCUCUUAACCGGUCAUUUCUA (SEQ 135) (listed as RNA, chemistry not given here)
Human SMYD2
  % mRNA remaining (compared to Ctrl siRNA): 26.5%

## SMYD2 706-728: siRNA to human SMYD2; sense GGUUUUUACCAGCUAUAUUGA (SEQ 70), antisense AAUAUAGCUGGUAAAAACCUC (SEQ 127) (listed as RNA, chemistry not given here)
Human SMYD2
  % mRNA remaining (compared to Ctrl siRNA): 53.2%

## SMYD2 416-438: siRNA to human SMYD2; sense GAUAAGUUAGACAAUGAGAAG (SEQ 73), antisense UCUCAUUGUCUAACUUAUCCA (SEQ 130) (listed as RNA, chemistry not given here)
Human SMYD2
  % mRNA remaining (compared to Ctrl siRNA): 28.5%

## SMYD2 759-781: siRNA to human SMYD2; sense GGUUAAGAGAUUCUUAUUUCU (SEQ 71), antisense AAAUAAGAAUCUCUUAACCGG (SEQ 128) (listed as RNA, chemistry not given here)
Human SMYD2
  % mRNA remaining (compared to Ctrl siRNA): 37.7%

## SMYD2 767-789: siRNA to human SMYD2; sense GAUUCUUAUUUCUUUACCUGU (SEQ 76), antisense AGGUAAAGAAAUAAGAAUCUC (SEQ 133) (listed as RNA, chemistry not given here)
Human SMYD2
  % mRNA remaining (compared to Ctrl siRNA): 46.4%

## SMYD2 675: siRNA to human SMYD2; sense GAGCUGUACAGGAAAUCAAUU (SEQ 64), antisense UUGAUUUCCUGUACAGCUCUU (SEQ 121) (listed as RNA, chemistry not given here)
Human SMYD2
  % mRNA remaining (compared to Ctrl siRNA): 121.4%

## SMYD2 736: siRNA to human SMYD2; sense CCCAACGGAAGAUAGAAAUUU (SEQ 61), antisense AUUUCUAUCUUCCGUUGGGUU (SEQ 118) (listed as RNA, chemistry not given here)
Human SMYD2
  % mRNA remaining (compared to Ctrl siRNA): 115.1%

## SMYD2 1251-1273: siRNA to human SMYD2; sense GCAAAGAUCAUCCAUAUAUUU (SEQ 77), antisense AUAUAUGGAUGAUCUUUGCCG (SEQ 134) (listed as RNA, chemistry not given here)
Human SMYD2
  % mRNA remaining (compared to Ctrl siRNA): 30.0%

## SMYD2 894: siRNA to human SMYD2; sense CACGCAACGUCAUUGAAGAUU (SEQ 68), antisense UCUUCAAUGACGUUGCGUGUU (SEQ 125) (listed as RNA, chemistry not given here)
Human SMYD2
  % mRNA remaining (compared to Ctrl siRNA): 18.3%

## SMYD2 758-780: siRNA to human SMYD2; sense CGGUUAAGAGAUUCUUAUUUC (SEQ 75), antisense AAUAAGAAUCUCUUAACCGGU (SEQ 132) (listed as RNA, chemistry not given here)
Human SMYD2
  % mRNA remaining (compared to Ctrl siRNA): 38.8%

## SMYD2 1082-1104: siRNA to human SMYD2; sense CAAUAUGGACAGAAAAUCAUU (SEQ 74), antisense UGAUUUUCUGUCCAUAUUGCA (SEQ 131)
Human SMYD2
  % mRNA remaining (compared to Ctrl siRNA): 35.2%

## SMYDS 588: siRNA to human SMYD2; sense CAGCGAUAUUUCCUGAUGUUU (SEQ 67), antisense ACAUCAGGAAAUAUCGCUGUU (SEQ 124) (listed as RNA, chemistry not given here)
Human SMYD2
  % mRNA remaining (compared to Ctrl siRNA): 26.3%

## SMYD2 1078: siRNA to human SMYD2; sense CCUGCAAUAUGGACAGAAAUU (SEQ 62), antisense UUUCUGUCCAUAUUGCAGGUU (SEQ 119) (listed as RNA, chemistry not given here)
Human SMYD2
  % mRNA remaining (compared to Ctrl siRNA): 107.5%

## SMYD2 1276-1298: siRNA to human SMYD2; sense GAUCAAACAGGAAAUUGAAAG (SEQ 72), antisense UUCAAUUUCCUGUUUGAUCUC (SEQ 129) (listed as RNA, chemistry not given here)
Human SMYD2
  % mRNA remaining (compared to Ctrl siRNA): 26.6%

## SMYD2 1249: siRNA to human SMYD2; sense CGGCAAAGAUCAUCCAUAUUU (SEQ 60), antisense AUAUGGAUGAUCUUUGCCGUU (SEQ 117) (listed as RNA, chemistry not given here)
Human SMYD2
  % mRNA remaining (compared to Ctrl siRNA): 110.9%

## SMYD2 1077: siRNA to human SMYD2; sense CCCUGCAAUAUGGACAGAAUU (SEQ 65), antisense UUCUGUCCAUAUUGCAGGGUU (SEQ 122) (listed as RNA, chemistry not given here)
Human SMYD2
  % mRNA remaining (compared to Ctrl siRNA): 72.7%

## SMYD2 493: siRNA to human SMYD2; sense CGGAUUCCCUGACAAUGAUUU (SEQ 66), antisense AUCAUUGUCAGGGAAUCCGUU (SEQ 123) (listed as RNA, chemistry not given here)
Human SMYD2
  % mRNA remaining (compared to Ctrl siRNA): 20.0%

## SMYD2 1252-1274: siRNA to human SMYD2; sense CAAAGAUCAUCCAUAUAUUUC (SEQ 69), antisense AAUAUAUGGAUGAUCUUUGCC (SEQ 126) (listed as RNA, chemistry not given here)
Human SMYD2
  % mRNA remaining (compared to Ctrl siRNA): 13.1%

## SMYD2 757: siRNA to human SMYD2; sense CCGGUUAAGAGAUUCUUAUUU (SEQ 59), antisense AUAAGAAUCUCUUAACCGGUU (SEQ 116) (listed as RNA, chemistry not given here)
Human SMYD2
  % mRNA remaining (compared to Ctrl siRNA): 82.3%

## O=C1COc2c(CCNCCN(C(=O)CCNCCc3ccc(Cl)c(Cl)c3)C3CCCCC3)ccc(O)c2N1 [AZ505]
WD NASH model; [1]
  body weight: significant reductions
  liver appearance: Smaller, less pale livers
  liver cholesterol: modest increase
  liver triglycerides: significant decrease
  liver weight: significant reductions
  liver/body weight ratios: significant reductions
  plasma lipids (triglyceride and cholesterol): modest increase
  steatosis (liver histology, H&E): dramatically decreased steatosis
  transaminitis (plasma ALT and AST): improved
WD NASH model; WD NASH model, AZ505 10 mg/kg i.p. 3 times per week, 2 months
  fatty liver disease (overall effect): ameliorates
WD NASH model; mouse, in vivo
  tolerability of dose: well tolerated
SMYD2; SMYD2
  IC50: 120 nM
SMYD2
  selectivity for SMYD2: > 600 fold

## SMYD2 310: siRNA to human SMYD2; sense GGAGACUGUAAGACUAACAUU (SEQ 63), antisense UGUUAGUCUUACAGUCUCCUU (SEQ 120) (listed as RNA, chemistry not given here)
Human SMYD2
  % mRNA remaining (compared to Ctrl siRNA): 24.0%
